Experimental data as given in ChEMBL document CHEMBL2163217, “A straightforward approach for engineering efficacy and selectivity at GPCRs” (J Med Chem, 2012).
Calls of active or inactive are those of the source. No cut-off for these calls is given here.

Assays:
Format in all cases: functional
[1] = molecular target: D(3) dopamine receptor (Homo sapiens) (UniProt P35462); assay: Partial agonist activity at D3 receptor
[2] = molecular target: D(2) dopamine receptor (Homo sapiens) (UniProt P14416); assay: Partial agonist activity at D2 receptor relative to control
[3] = molecular target: D(3) dopamine receptor (Homo sapiens) (UniProt P35462); assay: Partial agonist activity at D3 receptor relative to control
[4] = molecular target: D(2) dopamine receptor (Homo sapiens) (UniProt P14416); assay: Partial agonist activity at D2 receptor

Chain of D(2) dopamine receptor (Homo sapiens) (P14416 whole entry): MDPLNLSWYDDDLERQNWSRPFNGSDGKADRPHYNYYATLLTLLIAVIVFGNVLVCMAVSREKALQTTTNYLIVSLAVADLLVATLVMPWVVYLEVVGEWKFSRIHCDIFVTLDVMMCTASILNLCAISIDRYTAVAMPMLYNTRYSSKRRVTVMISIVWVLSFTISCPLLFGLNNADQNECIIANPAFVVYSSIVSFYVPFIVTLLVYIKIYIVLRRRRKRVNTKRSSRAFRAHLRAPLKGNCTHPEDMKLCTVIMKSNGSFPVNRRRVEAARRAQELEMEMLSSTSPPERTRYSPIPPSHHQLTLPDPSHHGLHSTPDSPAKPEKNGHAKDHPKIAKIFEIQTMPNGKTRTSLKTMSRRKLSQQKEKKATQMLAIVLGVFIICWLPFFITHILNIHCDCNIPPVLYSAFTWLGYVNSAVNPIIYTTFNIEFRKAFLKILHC
Chain of D(3) dopamine receptor (Homo sapiens) (P35462 whole entry): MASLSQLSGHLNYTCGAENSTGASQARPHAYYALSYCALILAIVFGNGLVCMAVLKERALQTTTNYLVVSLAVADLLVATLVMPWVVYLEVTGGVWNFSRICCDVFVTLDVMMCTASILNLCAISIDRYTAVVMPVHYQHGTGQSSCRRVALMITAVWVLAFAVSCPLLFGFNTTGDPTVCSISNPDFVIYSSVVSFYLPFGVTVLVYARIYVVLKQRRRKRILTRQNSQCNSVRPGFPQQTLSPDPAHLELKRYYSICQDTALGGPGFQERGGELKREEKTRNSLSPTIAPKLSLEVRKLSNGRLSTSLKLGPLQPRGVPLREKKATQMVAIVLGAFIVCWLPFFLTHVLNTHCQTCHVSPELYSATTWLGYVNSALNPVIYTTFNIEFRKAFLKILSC

| Compound | Activity [1] | Emax [2] [%] | Emax [3] [%] | Activity [4] |
| --- | --- | --- | --- | --- |
| O=C(NCCCCN1CCN(c2cccc(Cl)c2Cl)CC1)c1cc2ccccc2[nH]1 | Active | – | – | – |
| COc1ccccc1N1CCNCC1 | – | 14 | – | – |
| COc1ccccc1N1CCN(CCCCNC(=O)c2cc3ccccc3[nH]2)CC1 | Active | 8 | 8 | Active |
| Clc1cccc(N2CCNCC2)c1Cl | – | 40.4 | 57.3 | – |
